Assay in all cases: growth of human tumour cells (NCI), 48 h
Test [1] has as its system DU-145 prostate.
For test [2], the system named is HCC-2998 colon.
Test [3] deals with HOP-62 NSCLC.
The test system of test [4] is KM12 colon.
Test [5] concerns MALME-3M melanoma.
The subject of test [6] is MDA-N.
Test [7] deals with NCI-H522 lung.
In test [8] the test system is OVCAR-8 ovarian.
Test [9] concerns SF-268 CNS.
Test [10] relates to SN12C renal.

We go through 24 molecules from PubChem BioAssay (NCI).

The structures appear in SMILES notation. Values joined by “and” are separate entries in the source; they are usually repeats but may differ in a detail not shown here. Equal values may be shown once.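 A five-concentration, 48-hour dose response in 96-well plates underlies each endpoint, interpolated linearly between surrounding concentrations. The concentration for 50% growth inhibition is given as GI50. Definition used: TGI = concentration required for complete inhibition of growth.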

Take `C[n+]1cccc2ccc3cccnc3c21`: the TGI in [1] was greater than 100 µM; in test [2], greater than 100 µM; in [3], 75 µM; in test [4], 96.6 µM; in test [5], 49.9 µM; in test [6] it was greater than 100 µM. For the same molecule, the TGI is 35.1 µM in test [7], greater than 100 µM in [8], 55.8 µM in [9] and greater than 100 µM in test [10].
On to `Nc1[nH]c(=O)nc2c1ncn2C1OC(CO)C(O)C1O` (configuration not stated), for which the TGI was 66.3 µM in [1]; 88.9 µM in [2]; greater than 100 µM in [3]; greater than 100 µM in test [4]; greater than 100 µM in [5]; greater than 100 µM in test [6]. Also, the TGI was greater than 100 µM in test [7], 74.4 µM in [8], greater than 100 µM in test [9] and greater than 100 µM in test [10].
For the molecule `N#Cc1c(NC(=S)Nc2ccc(Cl)cc2)sc2c1CCN(N1CCc3c(sc(NC(=S)Nc4ccc(Cl)cc4)c3C#N)C1)C2`, the TGI in test [1] was greater than 100 µM; in [2] it was greater than 100 µM; in test [3], 55.2 µM; in test [4], greater than 100 µM; in [5], greater than 100 µM; in test [6], greater than 100 µM. In addition, the TGI is greater than 100 µM in test [7], 88.5 µM in [8], greater than 100 µM in test [9] and greater than 100 µM in [10].
Take `O=C1c2ccccc2-c2nc3ccncc3n21`: the TGI in test [1], in test [2], in test [3], in test [4], in test [5] and in [6] was greater than 100 µM throughout. Besides, the TGI in test [7], in [8], in [9] and in [10] was greater than 100 µM throughout.
Take `COc1cc2c(cc1OC)C(=O)N(c1ccc(OCCN3CCCC3)cc1)C2`: the TGI in test [1], in [2], in test [3], in test [4], in [5] and in test [6] was greater than 100 µM throughout. The TGI in test [7], in test [8], in [9] and in [10] was greater than 100 µM in each case.
`CCN(CC)C(=S)SC(C(=O)Nc1nnc(-c2ccc(Cl)cc2)o1)c1ccccc1` (configuration not stated): the TGI in [1] is 94 µM; in test [2], 16.9 µM; in test [3], 43.1 µM; in [4], 58.2 µM; in test [5], 32.7 µM; in test [6], 50.3 µM. The TGI in test [7] was 26.6 µM; in [8] it was greater than 100 µM; in test [9], 67 µM; in test [10] it was 38.2 µM.
For `CC(Nc1ccc(Cl)cc1)c1ccncc1` (configuration not stated), the TGI in test [1], in test [2], in [3], in test [4], in test [5] and in [6] was greater than 100 µM throughout. The TGI in test [7], in test [8], in test [9] and in test [10] was greater than 100 µM in each case.
As for `O=C(Nc1ccccc1)N1CCN(C(=O)Nc2ccccc2)C1=S`, the TGI was greater than 100 µM in [1]; greater than 100 µM in test [2]; 67.9 µM in test [3]; greater than 100 µM in test [4]; greater than 100 µM in test [5]; greater than 100 µM in test [6]. Further, the TGI is greater than 100 µM in [7], greater than 100 µM in [8], 47.8 µM in test [9] and greater than 100 µM in test [10].
On to `CSC(SC)=C(C(=O)c1ccc(Cl)cc1)n1c(=O)sc2cc(Br)ccc21`, for which the TGI in test [1], in test [2], in test [3], in [4], in [5] and in [6] was greater than 100 µM in each case. Moreover, the TGI in [7], in [8], in test [9] and in [10] was greater than 100 µM each time.
As to `Clc1ccc2c(c1)N(CCCN1CCCC13CCCCC3)c1ccccc1S2`, the TGI in [1] was 34.2 µM; in [2], 8.64 µM; in [3], 33.4 µM; in [4], 27.7 µM; in test [5], 28.1 µM; in [6], 26.2 µM. In addition, the TGI was 25.1 µM in [7], 42.6 µM in test [8], greater than 58.7 µM in test [9] and 26.8 µM in test [10].
Take `COc1cccc2c1C(=O)c1c(O)c3c(c(O)c1C2=O)C[C@@](O)(C(C)=O)CC3OC1CC(OC2CC(N)C(O)C(C)O2)C(O)C(C)O1` (some centres not stated): the TGI in test [1], in test [2], in test [3], in [4], in test [5] and in test [6] was greater than 100 µM each time. The TGI in [7], in test [8], in test [9] and in [10] was greater than 100 µM throughout.
Consider `Cc1ccccc1NC(=O)O/N=C(\Cl)C(C)C`, for which the TGI was 31.5 µM in test [1]; 31.5 µM in [2]; 33.4 µM in [3]; 36.2 µM in [4]; 5.73 µM in [5]; 8.58 µM in test [6]. For the same molecule, the TGI stood at 3.18 µM in test [7], 33.8 µM in [8], 45.1 µM in [9] and 3.2 µM in test [10].
Regarding `Cc1nc(NC(C)(CO)CO)nc(N/N=C/c2ccc(Cl)cc2)c1C(=O)Nc1ccc(Cl)cc1`, the TGI in test [1], in test [2], in [3], in [4], in test [5] and in test [6] was greater than 100 µM in each case. Further, the TGI in test [7], in [8], in test [9] and in [10] was greater than 100 µM in each case.
On to `CC(C)(C)C1CCC2c3c([nH]c4ccccc34)C3C(=O)N(c4ccc([N+](=O)[O-])cc4)C(=O)C3C2C1` (configuration not stated), for which the TGI was greater than 100 µM in test [1]; 27.4 µM in [2]; 33.8 µM in test [3]; 35.7 µM in test [4]; 43.7 µM in test [5]; greater than 100 µM in [6]. Moreover, the TGI in [7] was 40.8 µM; in test [8], greater than 100 µM; in test [9], 34.8 µM; in [10] it was 20.8 µM.
In the case of `COC1(CC[C@@H](C)COC2OC(CO)C(O)C(O)C2O)OC2C[C@H]3[C@@H]4CC[C@H]5C[C@@H](OC6OC(CO)C(OC7OC(CO)C(O)C(O)C7O)C(O)C6OC6OC(C)C(O)C(O)C6O)[C@H](O)C[C@]5(C)[C@H]4CC[C@]3(C)C2[C@@H]1C` (some centres not stated), the TGI in test [1] came to 3.92 µM; in test [2] it was 3.24 µM; in test [3] it was 3.69 µM; in test [4], 5.02 µM; in test [5] it was 3.33 µM; in test [6], 4.55 µM. In addition, the TGI worked out at 4.63 µM in test [7], 3.75 µM in test [8], 3.99 µM in test [9] and 3.42 µM in [10].
Regarding `COC(=N)C1(C#N)NC(c2ccsc2)C(C#N)(C#N)NC1c1ccsc1` (configuration not stated), the TGI in test [1], in test [2], in test [3], in test [4], in [5] and in [6] was greater than 100 µM each time. Moreover, the TGI in [7], in test [8], in [9] and in test [10] was greater than 100 µM throughout.
For the molecule `O=CCCCCCOCc1ccccc1`, the TGI is greater than 100 µM in test [1]; greater than 100 µM in test [2]; 79.9 µM in test [3]; greater than 100 µM in test [4]; greater than 100 µM in test [5]; greater than 100 µM in [6]. The TGI is greater than 100 µM in test [7], greater than 100 µM in [8], greater than 100 µM in [9] and 32.6 µM in [10].
`COC(=O)C1OC(O[C@H]2CC[C@]3(C)[C@H]4CC=C5[C@@H]6CC(C)(C)CC[C@]6(C(=O)OC6OCC(O)C(O)C6OC6OC(C)C(OC7OCC(O)C(O)C7O)C(O)C6O)[C@H](O)C[C@@]5(C)[C@]4(C)CC[C@H]3C2(C)C)C(O)C(O)C1O` (some centres not stated): the TGI is > 57.7 µM and 26.5 µM in test [1]; 6.71 µM and 3.44 µM in test [2]; 17.8 µM and 22.9 µM in [3]; 13.1 µM and 13 µM in [4]; 16.2 µM and 23.6 µM in test [5]; 3.77 µM and 12.1 µM in test [6]. The TGI in test [7] is 6.84 µM and 5.14 µM; in test [8], 26.8 µM and 8.47 µM; in [9], 22.4 µM and 23.2 µM; in test [10], 3.62 µM and 3.7 µM. Also, the GI50 in test [5] is 4.78 µM and 11.2 µM; in [8], 11.8 µM and 2.76 µM.
Turning to `CC1=NN(C(=O)CC(=O)Nc2cccc(C)c2)C(=O)C1N=Nc1ccc(S(=O)(=O)CCOS(=O)(=O)O)cc1` (configuration not stated), the TGI in [1] is greater than 100 µM; in [2] it was 5.51 µM; in [3] it was 25.9 µM; in test [4], 13.9 µM; in test [5], 13.6 µM; in test [6], 0.902 µM. For the same molecule, the TGI in test [7] was 0.835 µM; in [8] it was greater than 22.4 µM; in test [9] it was 28 µM; in test [10], 5.51 µM.
As for `CC(=O)NC1C(OCc2ccccc2)OC(CO)C(O)C1OC(C)C(=O)N[C@@H](C)C(=O)N[C@H](CCC(=O)NCCNCCNc1c2ccccc2nc2cccc([N+](=O)[O-])c12)C(N)=O` (some centres not stated), the TGI in test [1] came out at 0.231 µM; in test [2], 0.072 µM; in [3], 5.17 µM; in [4] it was 0.352 µM; in test [5], 0.221 µM; in test [6], 0.305 µM. The TGI in test [7] worked out at 0.0665 µM; in test [8] it was 0.457 µM; in test [9], 2.14 µM; in [10] it was 0.99 µM.
Take `Nc1c(C(=O)c2ccc(Cl)c(Cl)c2)[nH]c(NCc2ccccc2)c1C(=S)Nc1ccccc1`: the TGI in test [1] amounted to 32.4 µM; in [2], 3.48 µM; in test [3], 34.7 µM; in test [4] it was 10.5 µM; in [5] it was 11.7 µM; in [6] it was 14.5 µM. Moreover, the TGI in test [7] came out at 17.7 µM; in [8], 30.2 µM; in [9], 31.5 µM; in [10] it was 29.2 µM.
In the case of `CN(CCCCCl)P(=O)(OCc1ccc([N+](=O)[O-])o1)OCC1OC(n2ccc(N)nc2=O)C(O)C1O` (configuration not stated), the TGI in test [1] came out at 44.6 µM; in test [2], 12.6 µM; in test [3], 66.8 µM; in test [4], 34.6 µM; in [5] it was 8.36 µM; in [6] it was 40.3 µM. Further, the TGI was 24.3 µM in [7], greater than 100 µM in test [8], greater than 100 µM in [9] and 33.7 µM in test [10].
Regarding `CN1CCN(C(=O)c2cn(Cc3cncn3Cc3ccc4c(c3)OCO4)cc2-c2cccc3ccccc23)CC1`, the TGI is greater than 100 µM in test [1]; 27 µM in test [2]; greater than 100 µM in [3]; greater than 58.3 µM in test [4]; 26.6 µM in test [5]; greater than 100 µM in test [6]. The TGI in test [7] was 84.1 µM; in test [8], greater than 100 µM; in [9], 66.5 µM; in test [10], greater than 100 µM.
Consider `NC(=O)[C@H](Cc1ccc(O)cc1)Nc1c(O)c2c(c(O)c1Cl)C(=O)C=CC2=O`, for which the TGI in test [1] was greater than 10 µM; in test [2] it was greater than 3.16 µM; in test [3], greater than 10 µM; in [4], greater than 6.81 µM; in [5], 3.78 µM; in test [6] it was 4.1 µM. For the same molecule, the TGI is 4.01 µM in test [7], greater than 6.26 µM in [8], greater than 10 µM in test [9] and greater than 6.94 µM in test [10].
